Data reported in patent publication US12539292B2, “BRM targeting compounds and associated methods of use” (Arvinas Operations, Inc., priority 2018, dated 2026).

Molecular target: T1, BRM (Homo sapiens, UniProt P51531)
T1 construct: In-Cell Western Screen of BRM Degradation in SW1573 Cells; endogenous in cells; host or cells: SW1573
Assay: In-cell Western screen of BRM degradation in SW1573 cells (Dmax and DC50)
Type: cell-based
Conditions: BRM degradation, SW1573 cells; for DC50: read-out: DC50; for Dmax: tested at the top concentration of between 0.3 and 10 μM, read-out: Dmax (%) (% degraded)
Procedure, shortened: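 Overnight compound treatment (18-20 h, final DMSO 0.1%) of SW1573 cells in DMEM with 10% FBS precedes fixation and in-cell Western staining with 800/680 nm dye-labelled secondaries. Plate images give DC50 and maximal degradation.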

T1 sequence (P51531 whole entry): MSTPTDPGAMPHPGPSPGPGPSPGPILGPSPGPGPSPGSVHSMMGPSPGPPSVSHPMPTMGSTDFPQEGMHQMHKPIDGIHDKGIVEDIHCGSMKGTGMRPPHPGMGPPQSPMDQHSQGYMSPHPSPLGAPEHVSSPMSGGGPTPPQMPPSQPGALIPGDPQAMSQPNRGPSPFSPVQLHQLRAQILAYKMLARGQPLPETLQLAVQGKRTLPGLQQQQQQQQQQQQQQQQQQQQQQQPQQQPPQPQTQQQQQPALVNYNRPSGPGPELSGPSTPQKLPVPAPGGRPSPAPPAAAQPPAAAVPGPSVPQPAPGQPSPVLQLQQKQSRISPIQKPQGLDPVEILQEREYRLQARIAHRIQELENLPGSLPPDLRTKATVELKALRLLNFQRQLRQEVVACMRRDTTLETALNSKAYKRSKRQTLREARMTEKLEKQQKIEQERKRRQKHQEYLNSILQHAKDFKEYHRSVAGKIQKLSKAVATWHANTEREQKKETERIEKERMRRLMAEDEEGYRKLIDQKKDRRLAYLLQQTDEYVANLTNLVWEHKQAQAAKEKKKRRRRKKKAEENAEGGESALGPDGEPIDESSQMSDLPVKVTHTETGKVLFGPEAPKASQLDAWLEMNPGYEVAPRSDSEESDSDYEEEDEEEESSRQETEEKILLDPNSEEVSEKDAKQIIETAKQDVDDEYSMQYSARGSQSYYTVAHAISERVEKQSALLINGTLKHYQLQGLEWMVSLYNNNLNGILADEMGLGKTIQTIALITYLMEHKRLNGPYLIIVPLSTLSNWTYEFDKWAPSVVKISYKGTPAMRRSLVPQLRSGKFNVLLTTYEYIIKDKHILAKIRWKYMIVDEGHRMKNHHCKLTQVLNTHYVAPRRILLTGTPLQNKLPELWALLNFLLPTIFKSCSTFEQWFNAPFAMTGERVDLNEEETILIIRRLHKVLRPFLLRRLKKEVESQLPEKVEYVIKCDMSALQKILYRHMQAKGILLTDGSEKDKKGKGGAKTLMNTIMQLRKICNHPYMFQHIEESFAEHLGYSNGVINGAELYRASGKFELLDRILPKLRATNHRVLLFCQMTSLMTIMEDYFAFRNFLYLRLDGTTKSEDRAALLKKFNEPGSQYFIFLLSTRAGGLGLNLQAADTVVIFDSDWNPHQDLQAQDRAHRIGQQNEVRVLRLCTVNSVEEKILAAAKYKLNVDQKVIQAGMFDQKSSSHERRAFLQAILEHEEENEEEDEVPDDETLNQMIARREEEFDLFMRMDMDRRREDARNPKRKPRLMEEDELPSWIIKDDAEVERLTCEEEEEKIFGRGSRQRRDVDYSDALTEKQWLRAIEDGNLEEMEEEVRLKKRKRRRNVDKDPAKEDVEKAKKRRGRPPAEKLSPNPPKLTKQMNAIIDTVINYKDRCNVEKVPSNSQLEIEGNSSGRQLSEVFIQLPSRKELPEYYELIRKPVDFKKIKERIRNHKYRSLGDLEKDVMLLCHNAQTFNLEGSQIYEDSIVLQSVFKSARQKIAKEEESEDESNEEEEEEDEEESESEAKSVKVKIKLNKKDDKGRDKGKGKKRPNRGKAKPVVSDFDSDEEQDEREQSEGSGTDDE

Row | SMILES | DC50 [nM] | Dmax [%]
1 | CC(C)[C@H](C(=O)N1C[C@H](O)C[C@H]1C(=O)N[C@@H](C)c1ccc(-c2ccnn2C)cc1)c1cc(OCCN2CCN(CCOc3cc(N4C5CCC4CN(c4cc(-c6ccccc6O)nnc4N)C5)ccn3)CC2)no1 [compound 263, (2S,4R)-1-((2S)-2-(3-(2-(4-(2-((4-(3-(3-amino-6-(2-hydroxyphenyl)pyridazin-4-yl)-3,8-diazabicyclo[3.2.1]octan-8-yl)pyridin-2-yl)oxy)ethyl)piperazin-1-yl)ethoxy)isoxazol-5-yl)-3-methylbutanoyl)-4-hydroxy-N-((S)-1-(4-(1-methyl-1H-pyrazol-5-yl)phenyl)ethyl)pyrrolidine-2-carboxamide] | 2.5 to 10 | > 75
2 | CC(C)[C@@H](C(=O)N1C[C@H](O)C[C@H]1C(=O)N[C@@H](C)c1ccc(-c2ccnn2C)cc1)c1cc(OCCN2CCN(CCOc3cc(N4C5CCC4CN(c4cc(-c6ccccc6O)nnc4N)C5)ccn3)CC2)no1 [compound 264, (2S,4R)-1-((2R)-2-(3-(2-(4-(2-((4-(3-(3-amino-6-(2-hydroxyphenyl)pyridazin-4-yl)-3,8-diazabicyclo[3.2.1]octan-8-yl)pyridin-2-yl)oxy)ethyl)piperazin-1-yl)ethoxy)isoxazol-5-yl)-3-methylbutanoyl)-4-hydroxy-N-((S)-1-(4-(1-methyl-1H-pyrazol-5-yl)phenyl)ethyl)pyrrolidine-2-carboxamide] | < 2.5 | > 75
3 | Cc1cnsc1-c1ccc([C@H](C)NC(=O)[C@@H]2C[C@@H](O)CN2C(=O)[C@H](c2cc(OCCN3CCN(CCOc4cc(N5C6CCC5CN(c5cc(-c7ccccc7O)nnc5N)C6)ccn4)CC3)no2)C(C)C)cc1 [compound 265, (2S,4R)-1-((2S)-2-(3-(2-(4-(2-((4-(3-(3-amino-6-(2-hydroxyphenyl)pyridazin-4-yl)-3,8-diazabicyclo[3.2.1]octan-8-yl)pyridin-2-yl)oxy)ethyl)piperazin-1-yl)ethoxy)isoxazol-5-yl)-3-methylbutanoyl)-4-hydroxy-N-((S)-1-(4-(4-methylisothiazol-5-yl)phenyl)ethyl)pyrrolidine-2-carboxamide] | > 30 | –
4 | Cc1cnsc1-c1ccc([C@H](C)NC(=O)[C@@H]2C[C@@H](O)CN2C(=O)[C@@H](c2cc(OCCN3CCN(CCOc4cc(N5C6CCC5CN(c5cc(-c7ccccc7O)nnc5N)C6)ccn4)CC3)no2)C(C)C)cc1 [compound 266, (2S,4R)-1-((2R)-2-(3-(2-(4-(2-((4-(3-(3-amino-6-(2-hydroxyphenyl)pyridazin-4-yl)-3,8-diazabicyclo[3.2.1]octan-8-yl)pyridin-2-yl)oxy)ethyl)piperazin-1-yl)ethoxy)isoxazol-5-yl)-3-methylbutanoyl)-4-hydroxy-N-((S)-1-(4-(4-methylisothiazol-5-yl)phenyl)ethyl)pyrrolidine-2-carboxamide] | < 2.5 | > 75
5 | Cc1ncsc1-c1ccc([C@@H](NC(=O)[C@@H]2C[C@@H](O)CN2C(=O)[C@H](c2cc(OCCN3CCC(O[C@H]4C[C@H](Oc5cc(N6C7CCC6CN(c6cc(-c8ccccc8O)nnc6N)C7)ccn5)C4)CC3)no2)C(C)C)C(F)F)cc1 [compound 267, (2S,4R)-1-((2S)-2-(3-(2-(4-((1r,3S)-3-((4-(3-(3-amino-6-(2-hydroxyphenyl)pyridazin-4-yl)-3,8-diazabicyclo[3.2.1]octan-8-yl)pyridin-2-yl)oxy)cyclobutoxy)piperidin-1-yl)ethoxy)isoxazol-5-yl)-3-methylbutanoyl)-N-((R)-2,2-difluoro-1-(4-(4-methylthiazol-5-yl)phenyl)ethyl)-4-hydroxypyrrolidine-2-carboxamide] | 2.5 to 10 | > 75
6 | Cc1ncsc1-c1ccc([C@@H](NC(=O)[C@@H]2C[C@@H](O)CN2C(=O)[C@@H](c2cc(OCCN3CCC(O[C@H]4C[C@H](Oc5cc(N6C7CCC6CN(c6cc(-c8ccccc8O)nnc6N)C7)ccn5)C4)CC3)no2)C(C)C)C(F)F)cc1 [compound 268, (2S,4R)-1-((2R)-2-(3-(2-(4-((1r,3R)-3-((4-(3-(3-amino-6-(2-hydroxyphenyl)pyridazin-4-yl)-3,8-diazabicyclo[3.2.1]octan-8-yl)pyridin-2-yl)oxy)cyclobutoxy)piperidin-1-yl)ethoxy)isoxazol-5-yl)-3-methylbutanoyl)-N-((R)-2,2-difluoro-1-(4-(4-methylthiazol-5-yl)phenyl)ethyl)-4-hydroxypyrrolidine-2-carboxamide] | < 2.5 | > 75
7 | Cc1ncsc1-c1ccc([C@H](C)NC(=O)[C@@H]2C[C@@H](O)CN2C(=O)[C@H](c2onc(OCCN3CCC(O[C@H]4C[C@H](Oc5cc(N6C7CCC6CN(c6cc(-c8ccccc8O)nnc6N)C7)ccn5)C4)CC3)c2F)C(C)C)cn1 [compound 269, (2S,4R)-1-((2S)-2-(3-(2-(4-((1r,3S)-3-((4-(3-(3-amino-6-(2-hydroxyphenyl)pyridazin-4-yl)-3,8-diazabicyclo[3.2.1]octan-8-yl)pyridin-2-yl)oxy)cyclobutoxy)piperidin-1-yl)ethoxy)-4-fluoroisoxazol-5-yl)-3-methylbutanoyl)-4-hydroxy-N-((S)-1-(6-(4-methylthiazol-5-yl)pyridin-3-yl)ethyl)pyrrolidine-2-carboxamide] | > 30 | –
8 | Cc1ncsc1-c1ccc([C@H](C)NC(=O)[C@@H]2C[C@@H](O)CN2C(=O)[C@@H](c2onc(OCCN3CCC(O[C@H]4C[C@H](Oc5cc(N6C7CCC6CN(c6cc(-c8ccccc8O)nnc6N)C7)ccn5)C4)CC3)c2F)C(C)C)cn1 [compound 270, (2S,4R)-1-((2R)-2-(3-(2-(4-((1r,3R)-3-((4-(3-(3-amino-6-(2-hydroxyphenyl)pyridazin-4-yl)-3,8-diazabicyclo[3.2.1]octan-8-yl)pyridin-2-yl)oxy)cyclobutoxy)piperidin-1-yl)ethoxy)-4-fluoroisoxazol-5-yl)-3-methylbutanoyl)-4-hydroxy-N-((S)-1-(6-(4-methylthiazol-5-yl)pyridin-3-yl)ethyl)pyrrolidine-2-carboxamide] | < 2.5 | > 75
9 | Cc1ncsc1-c1ccc([C@H](C)NC(=O)[C@@H]2C[C@@H](O)CN2C(=O)[C@H](c2cc(OCC(=O)N3CCC(O[C@H]4C[C@H](Oc5cc(N6C7CCC6CN(c6cc(-c8ccccc8O)nnc6N)C7)ccn5)C4)CC3)no2)C(C)C)cn1 [compound 271, (2S,4R)-1-((2S)-2-(3-(2-(4-((1r,3S)-3-((4-(3-(3-amino-6-(2-hydroxyphenyl)pyridazin-4-yl)-3,8-diazabicyclo[3.2.1]octan-8-yl)pyridin-2-yl)oxy)cyclobutoxy)piperidin-1-yl)-2-oxoethoxy)isoxazol-5-yl)-3-methylbutanoyl)-4-hydroxy-N-((S)-1-(6-(4-methylthiazol-5-yl)pyridin-3-yl)ethyl)pyrrolidine-2-carboxamide] | > 30 | –
10 | Cc1ncsc1-c1ccc([C@@H](COCC2CCOCC2)NC(=O)[C@@H]2C[C@@H](O)CN2C(=O)[C@H](c2cc(OCCN3CCN(CCOc4cc(N5C6CCC5CN(c5cc(-c7ccccc7O)nnc5N)C6)ccn4)CC3)no2)C(C)C)cc1 [compound 272, (2S,4R)-1-((2S)-2-(3-(2-(4-(2-((4-(3-(3-amino-6-(2-hydroxyphenyl)pyridazin-4-yl)-3,8-diazabicyclo[3.2.1]octan-8-yl)pyridin-2-yl)oxy)ethyl)piperazin-1-yl)ethoxy)isoxazol-5-yl)-3-methylbutanoyl)-4-hydroxy-N-((S)-1-(4-(4-methylthiazol-5-yl)phenyl)-2-((tetrahydro-2H-pyran-4-yl)methoxy)ethyl)pyrrolidine-2-carboxamide] | > 30 | –
